Data as given in patent publication US8389567B2, “Compounds that modulate intracellular calcium” (Calcimedica, Inc., priority 2007, dated 2013).

Experiments:
[1] = system: STIM1-induced Ca2+ entry in HEK[STIM1] cells
Protocol: (§1) To test whether the Ca^2+ entry pathway constitutively activated by STIM 1 overexpression is pharmacologically similar to endogenous SOCE, HEK[STIM1] cells are pre-incubated with increasing doses of 2-APB and STIM1-induced Ca^2+ entry is measured.

[2] = system: store-operated calcium entry in HEK-Zeo control cells; conditions: read-out: IC50 for inhibition of calcium entry, thapsigargin store depletion, readdition of external calcium, pre-incubation with increasing doses
Protocol: as §1

[3] = system: store-operated calcium entry in HEK[STIM1] cells; conditions: read-out: IC50 for inhibition of calcium entry, thapsigargin store depletion, readdition of external calcium, pre-incubation with increasing doses
Protocol: as §1

NCCOB(c1ccccc1)c1ccccc1 [Compound 2-APB, 2-aminoethoxydiphenyl borate]
effect on calcium entry at lower concentrations ([1]; absence of store depletion, lower concentrations of 2-APB (biphasic effect)): potentiated
IC50 ([1]; read-out: IC50 for inhibition of constitutive calcium entry, absence of store depletion): 10.8 µM
IC50 [2]: 11.8 µM
IC50 [3]: 10.5 µM
